Tests used:
pS6 S235/236 = assay: In-cell Western blot, pS6 S235/236; format: cell-based; conditions: Homo sapiens; A2058 cells, treated 1 h, normalized to α-Tubulin
Experimental: (§1) A2058 cells were plated at 20,000 cells/well in a 96-well plate (Perkin Elmer, Cat. No. 6005558) and 24 h later treated with different compounds for 1 h. […] Cells were fixed with 4% paraformaldehyde for 30 min at RT, washed 2 times with 1% BSA in PBS, permeabilized with 0.1% Triton X-100 in PBS/1% BSA for 30 min at rt and blocked with 5% goat serum in PBS/1% BSA/0.1% Triton X-100 for 30 min at rt. Cells were stained with primary antibody either with rabbit anti-pPKB S473 (1:500; Cell Signalling Technology, Cat. No. 4058) combined with mouse anti-α-Tubulin (1:2000; used for normalization; Sigma, Cat. No. T9026) or with rabbit anti-pS6 S235/S236 (1:500; Cell Signalling Technology, Cat. No. 4856) combined with mouse anti-α-Tubulin (1:2000; used for normalization) over night at 4° C. After 3 times 5 min wash with PBS/1% BSA/0.1% Triton cells were treated with the secondary antibodies goat-anti-mouse IRDye680 (LICOR, Cat. No. 926-68070) and goat-anti-rabbit IRDye800 (LICOR, 926-32211) (each diluted 1:500 in PBS/1% BSA/0.1% Triton) for 1 h while shaking in the dark. Cells were washed 3 times 5 min with PBS/1% BSA/0.1% Triton and plate scanned with the Odyssey Infrared Scanning system using both 700 and 800 nm channels. […] To correct for background staining in the data analysis wells were treated only with secondary antibodies.
(§2) For data analysis the mean background signal from channel 700 nm and 800 nm were subtracted from each signal in channel 700 nm and 800 nm, respectively. The signals in each channel were normalized to the 0% inhibition and then signal ratio 800 nm over 700 nm was performed to obtain the values for either pPBK S473 or pS6 S235/S236 normalized to α-Tubulin.
(§3) IC50 values of each compound were determined by plotting the normalized pPBK S473 and pS6 S235/S236 signals, respectively, versus the compound concentrations (in logarithmic scale) and then by fitting a sigmoidal dose-response curve with variable slope to the data using GraphPad™ Prism.

PI3K alpha (p110α) = target: T1, PI3K alpha (p110α) (Homo sapiens, UniProt P42336); assay: In vitro PI3K alpha binding assay (time-resolved FRET, Tracer 314); conditions: N-terminally His-tagged PI3K alpha, 20 nM Tracer 314, 1 h at rt
T1 construct: purchased Life Technologies PV4789
T1 sequence (P42336 whole entry): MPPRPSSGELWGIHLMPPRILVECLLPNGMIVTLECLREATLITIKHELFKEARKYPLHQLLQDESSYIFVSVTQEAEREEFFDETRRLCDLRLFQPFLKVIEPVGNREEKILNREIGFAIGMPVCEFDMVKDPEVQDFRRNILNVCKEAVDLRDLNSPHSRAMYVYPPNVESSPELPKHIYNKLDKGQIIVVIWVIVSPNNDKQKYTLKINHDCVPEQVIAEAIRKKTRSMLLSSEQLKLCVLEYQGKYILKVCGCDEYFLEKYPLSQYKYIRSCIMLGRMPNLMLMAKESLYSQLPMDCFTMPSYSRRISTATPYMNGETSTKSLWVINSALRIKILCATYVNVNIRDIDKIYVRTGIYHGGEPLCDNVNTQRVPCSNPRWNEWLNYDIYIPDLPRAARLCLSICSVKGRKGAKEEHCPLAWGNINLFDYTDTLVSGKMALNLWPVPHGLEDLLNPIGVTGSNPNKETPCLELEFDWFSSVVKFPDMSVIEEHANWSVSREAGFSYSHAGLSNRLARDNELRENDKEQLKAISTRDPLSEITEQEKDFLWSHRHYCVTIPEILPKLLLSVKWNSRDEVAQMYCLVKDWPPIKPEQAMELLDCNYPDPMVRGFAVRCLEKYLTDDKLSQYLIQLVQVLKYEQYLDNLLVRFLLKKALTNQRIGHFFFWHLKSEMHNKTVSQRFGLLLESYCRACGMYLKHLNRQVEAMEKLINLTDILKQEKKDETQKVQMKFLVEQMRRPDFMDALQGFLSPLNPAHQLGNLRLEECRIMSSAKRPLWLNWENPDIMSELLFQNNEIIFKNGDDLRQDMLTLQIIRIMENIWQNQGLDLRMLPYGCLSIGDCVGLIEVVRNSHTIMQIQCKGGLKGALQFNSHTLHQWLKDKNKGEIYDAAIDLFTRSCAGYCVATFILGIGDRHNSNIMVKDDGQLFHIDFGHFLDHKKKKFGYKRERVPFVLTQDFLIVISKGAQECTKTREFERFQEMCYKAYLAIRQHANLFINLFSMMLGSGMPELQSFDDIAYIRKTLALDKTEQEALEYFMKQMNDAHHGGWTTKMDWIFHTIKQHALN
T1 sequence (P27986 whole entry partner): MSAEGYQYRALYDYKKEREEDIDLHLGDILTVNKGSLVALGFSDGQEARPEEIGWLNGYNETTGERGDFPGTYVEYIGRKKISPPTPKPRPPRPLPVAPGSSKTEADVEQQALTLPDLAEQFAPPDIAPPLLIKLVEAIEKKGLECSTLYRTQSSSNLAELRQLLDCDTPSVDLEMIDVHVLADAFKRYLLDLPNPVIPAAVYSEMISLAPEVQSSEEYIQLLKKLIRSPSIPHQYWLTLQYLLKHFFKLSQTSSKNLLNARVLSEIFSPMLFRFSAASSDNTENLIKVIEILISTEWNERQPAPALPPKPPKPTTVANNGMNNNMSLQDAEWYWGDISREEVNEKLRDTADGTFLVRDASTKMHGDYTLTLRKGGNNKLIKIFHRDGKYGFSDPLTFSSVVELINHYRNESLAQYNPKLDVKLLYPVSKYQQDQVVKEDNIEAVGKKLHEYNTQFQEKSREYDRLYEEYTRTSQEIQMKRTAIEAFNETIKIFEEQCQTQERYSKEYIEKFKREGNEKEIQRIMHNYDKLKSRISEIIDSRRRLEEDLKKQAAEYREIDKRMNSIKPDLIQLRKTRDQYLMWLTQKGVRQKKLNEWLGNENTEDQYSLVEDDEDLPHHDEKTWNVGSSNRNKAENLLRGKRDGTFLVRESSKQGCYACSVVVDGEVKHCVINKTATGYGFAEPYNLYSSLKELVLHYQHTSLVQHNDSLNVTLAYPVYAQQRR
Experimental: N-terminally His-tagged PI3K alpha (Cat. No. PV4789; 0.49 mg/ml), Alexa Fluor® 647 labeled kinase Tracer 314 (Cat. No. PV6087), Biotin anti-His Tag antibody (Cat. No PV6089) and LanthaScreen® Eu-Streptavidin (Cat. No. PV5899) were purchased from Life Technologies. The 1× Kinase Buffer A consists of 50 mM HEPES pH 7.5, 10 mM MgCl2, 1 mM EGTA, and 0.01% (v/v) Brij-35 (Sigma Cat. No. B4184-100ML).
A 4-fold serial dilution of each compound to be tested was prepared in DMSO (master dilution) in a 96-well polystyrene plate (Falcon Cat. No. 353072, flat bottom) with the highest concentration at 1000 μM and the lowest at 0.004 μM. The master dilution series were diluted further 33.3-fold into Kinase Buffer A by transferring 5 μl of each concentration of diluted compound to 162 μl Kinase Buffer A in a new 96-well plate resulting to a 3-fold serially compound dilution. Based on a Tracer 314 titration experiment a working concentration of 20 nM was chosen. Therefore a 60 nM Tracer 314 solution in Kinase Buffer A was prepared resulting in a 3-fold concentrated solution. A 3-fold concentrated kinase/antibody solution at 15 nM kinase, 6 nM antibody and 6 nM Eu-Streptavidin was prepared in Kinase Buffer A. Five μl of each 3× serially diluted compound were dispensed in a 384-well plate in duplicate. Then to each well 5 μl of 3× kinase/antibody mixture was added followed by the addition of 5 μl 3× Tracer 314 solution. After 1 h incubation at rt, time-resolved FRET was measured with a Synergy 4 multi-mode microplate reader (Biotek Instruments) using the following settings: 100 μs delay before data collection, 200 μs time for data collection, 10 measurements per data point. Emission filter: 665 nm/8 nm with sensitivity set to 163 and 620 nm/10 nm with sensitivity set to 135; Excitation filter: 340 nm/30 nm; Dichroic mirror 400 nm.
For data analysis, emission ratio was calculated by dividing the signal emitted at 665 nm from the acceptor (Alexa Fluor® 647 labeled Tracer 314) by the signal emitted at 620 nm from the donor (Eu-labeled antibody). IC50 values of each compound were determined by plotting the emission ratio versus the compound concentrations (in logarithmic scale) and then by fitting a sigmoidal dose-response curve with variable slope to the data using GraphPad™ Prism.

pPKB S473 = assay: In-cell Western blot, pPKB S473; format: cell-based; conditions: Homo sapiens; A2058 cells, treated 1 h, normalized to α-Tubulin
Experimental: as §1, §2, §3

SMILES | IC50 (pS6 S235/236) | IC50 (PI3K alpha (p110α)) | IC50 (pPKB S473)
Nc1cc(C(F)(F)F)c(-c2nc(N3CCOCC3)c3c(n2)N2CCOC[C@H]2C3)cn1 [Compound 6, (R)-5-(4-morpholino-5a,6,8,9-tetrahydro-5H-pyrimido[5′,4′:4,5]pyrrolo[2,1-c][1,4]oxazin-2-yl)-4-(trifluoromethyl)pyridin-2-amine] | 696 nM | 390 nM | 425 nM
Nc1ncc(-c2nc(N3CCOCC3)c3c(n2)N2CCOC[C@H]2C3)cn1 [Compound 9, (R)-5-(4-morpholino-5a,6,8,9-tetrahydro-5H-pyrimido[5′,4′:4,5]pyrrolo[2,1-c][1,4]oxazin-2-yl)pyrimidin-2-amine] | 65 nM | 411 nM | 145 nM
Nc1cc(C(F)(F)F)c(-c2nc(N3CCOCC3)c3c(n2)N2CCOC[C@@H]2C3)cn1 [Compound 22, (S)-5-(4-morpholino-5a,6,8,9-tetrahydro-5H-pyrimido[5′,4′:4,5]pyrrolo[2,1-c][1,4]oxazin-2-yl)-4-(trifluoromethyl)pyridin-2-amine] | 1090 nM | 98.1 nM | 428 nM
Nc1ncc(-c2nc(N3CCOCC3)c3c(n2)N2CCOC[C@@H]2C3)cn1 [Compound 25, (S)-5-(4-morpholino-5a,6,8,9-tetrahydro-5H-pyrimido[5′,4′:4,5]pyrrolo[2,1-c][1,4]oxazin-2-yl)pyrimidin-2-amine] | 98 nM | 76 nM | 154 nM
Nc1cc(C(F)(F)F)c(-c2nc(N3CCOCC3)nc3c2C[C@@H]2COCCN32)cn1 [Compound 38, (R)-5-(2-morpholino-5a,6,8,9-tetrahydro-5H-pyrimido[5′,4′:4,5]pyrrolo[2,1-c][1,4]oxazin-4-yl)-4-(trifluoromethyl)pyridin-2-amine] | 9080 nM | 2620 nM | 5910 nM
Nc1ncc(-c2nc(N3CCOCC3)nc3c2C[C@@H]2COCCN32)cn1 [Compound 41, (R)-5-(2-morpholino-5a,6,8,9-tetrahydro-5H-pyrimido[5′,4′:4,5]pyrrolo[2,1-c][1,4]oxazin-4-yl)pyrimidin-2-amine] | 574 nM | 231 nM | 575 nM
Nc1cc(C(F)(F)F)c(-c2nc(N3CCOCC3)nc3c2C[C@H]2COCCN32)cn1 [Compound 54, (S)-5-(2-morpholino-5a,6,8,9-tetrahydro-5H-pyrimido[5′,4′:4,5]pyrrolo[2,1-c][1,4]oxazin-4-yl)-4-(trifluoromethyl)pyridin-2-amine] | 2110 nM | 383 nM | 833 nM
Nc1ncc(-c2nc(N3CCOCC3)nc3c2C[C@H]2COCCN32)cn1 [Compound 57, (S)-5-(2-morpholino-5a,6,8,9-tetrahydro-5H-pyrimido[5′,4′:4,5]pyrrolo[2,1-c][1,4]oxazin-4-yl)pyrimidin-2-amine] | 594 nM | 1640 nM | 1260 nM
